Experimental data from patent publication EP4070856A1, “ORGANIC COMPOUNDS AND USES THEREOF” (Adebiyi, Ezekiel, priority 2021, dated 2022).

Assay: In vitro cytotoxicity with L-6 cells (Alamar Blue)
Type: cell-based
Details: L-6 cells (rat skeletal myoblasts), 70 h + 2 h Alamar Blue; read-out: Cytotoxicity L6 IC50
Protocol: Assays were performed in 96-well microtiter plates, each well containing 100 µl of RPMI 1640 medium supplemented with 1% L-glutamine (200mM) and 10% fetal bovine serum, and 4000 L-6 cells (a primary cell line derived from rat skeletal myoblasts). Serial drug dilutions of eleven 3-fold dilution steps covering a range from 100 to 0.002 µg/ml were prepared. After 70hours of incubation the plates were inspected under an inverted microscope to assure growth of the controls and sterile conditions. 10µl of Alamar Blue was then added to each well and the plates incubated for another 2 hours. Later they were read with a Spectramax Gemini XS microplate fluorometer (Molecular Devices Cooperation, Sunnyvale, CA, USA) using an excitation wave length of 536 nm and an emission wave length of 588 nm. The IC50 values were calculated by linear regression from the sigmoidal dose inhibition curves using SoftmaxPro software (Molecular Devices Cooperation, Sunnyvale, CA, USA). Podophyllotoxin (Sigma P4405) as control.

First: N=C(NO)c1ccc(C(=O)NO)cc1 [Compound 1c]
Second: N=C(NO)c1ccc(NC(=O)NO)cc1 [Compound 2c]
The CC50 at 72 h of the first is lower: 56.1 µg/mL for the first, > 100 µg/mL for the second.

`N=C(NO)c1ccc(NC(=O)NOCc2ccccc2)cc1` [Compound 2b] and `N=C(NO)c1ccc(NC(=S)NOCc2ccccc2)cc1` [Compound 3c] are within 1.5-fold of each other in CC50 at 72 h: 43 µg/mL for the first, 57.6 µg/mL for the second.

First: O=C(NO)Nc1ccc(Cl)c(Cl)c1 [Compound 4b]
Second: Nc1ccc(C(=O)NO)cc1 [Compound 9b]
The CC50 at 72 h of the first is higher: > 100 µg/mL for the first, 43.4 µg/mL for the second.

Going from `O=C(NO)NC1CCCCC1` [Compound 7b] to `CC(=O)N(O)c1ccc(C(=N)NO)cc1` [Compound 10c], the CC50 at 72 h falls from 93 µg/mL to 52.2 µg/mL (1.8-fold).

Compared with `CCCCONC(=O)c1ccc(NC(=N)N)cc1` [Compound 9d], `N=C(N)c1ccc(N)cc1` [Compound 13c] is lower in CC50 at 72 h: > 100 µg/mL for the first, 42.9 µg/mL for the second.

`N=C(NO)c1ccc(S(=O)(=O)NO)cc1` [Compound 12b] and `N=C(N)c1ccc(S(=O)(=O)NO)cc1` [Compound 12d] cannot be ordered by CC50 at 72 h: > 100 µg/mL for the first, > 100 µg/mL for the second.

`NC(=O)c1ccc(S(=O)(=O)NO)cc1` [Compound 12c] and `Cc1ccc(S(=O)(=O)NC(C#N)C#N)cc1` [Compound 16a] cannot be ordered by CC50 at 72 h: > 100 µg/mL for the first, > 100 µg/mL for the second.

Compared with `CC(C)(C)C(=O)N(O)c1ccc(C#N)cc1` [Compound 15a], `N#Cc1nc(-c2ccco2)c[n+]([O-])c1N` [Compound 16b] is 1.8-fold higher in CC50 at 72 h: 33.5 µg/mL for the first, 61.1 µg/mL for the second.

With `Nc1nc2ncc(C(=O)O)nc2c(=O)[nH]1` [Compound P6CAH] the CC50 at 72 h was > 100 µg/mL.

For `COc1cc([C@@H]2c3cc4c(cc3[C@H](O)[C@H]3COC(=O)[C@H]23)OCO4)cc(OC)c1OC` [Podophyllotoxin, reference compound], the IC50 at 72 h was 0.006 µg/mL.
